Measurements from patent publication US8907131B2, “Compounds for treating proliferative disorders” (Synta Pharmaceuticals Corp., priority 2007, dated 2014).
pEC50: −log10 of the molar value.

System: Hsp70
Assay: Hsp70 ELISA assay: Hsp70 induction in Ramos B lymphoma cells
Type: cell-based
Conditions: for pEC50: Homo sapiens, Ramos B lymphoma cells treated at 10, 50, 250 and 1250 nM for 5 h, whole culture lysate, Hsp70 ELISA, read-out: ED50 (Hsp70 induction)
Experimental: Hsp70 induction was measured in Ramos B lymphoma cells. Cells were seeded at 80 μl/well in 96-plate and treated with compounds at 10, 50, 250 and 1250 nM for 5 h. […] Cells were lysed in culture medium with ¼-vol of alkaline-detergent buffer composed of 200 mM bicarbonate, pH 9.4, and 20% Triton X100 to include Hsp70 that would be released into culture supernatant. […] Fifty microliter of the whole culture lysate was transferred to Hsp70 ELISA assay well (Assay Design) including 150 μl of immunoenhancer solution (Toyobo, Japan). Then the assay steps were carried out according to the protocol of the manufacturer. Compound A was included in each cell culture plate as a reference to normalize the interexperimental variance.

Row | SMILES | pEC50 | Hsp70 induction (Ramos B lymphoma cells, titration used to set cell density)
1 | CN(NC(=O)CC(=O)NN(C)/C(=N/O)c1ccccc1)/C(=N/O)c1ccccc1 [Compound 11, N′1,N′3-bis((E)-(hydroxyimino)(phenyl)methyl)-N′1,N′3-dimethylmalonohydrazide] | < 5.90 | –
2 | COc1ccc(OC)c(C(=[Se])N(C)NC(=O)CC(=O)NN(C)C(=[Se])c2cc(OC)ccc2OC)c1 [Compound 12, N′^1,N′3-bis(2,5-dimethoxyphenylcarbonoselenoyl)-N′^1,N′^3-dimethylmalonohydrazide] | < 5.90 | –
3 | CO/N=C(\c1ccccc1)N(C)NC(=O)CC(=O)NN(C)/C(=N/OC)c1ccccc1 [Compound 10, N′1,N′3-bis((E)-(methoxyimino)(phenyl)methyl)-N′1,N′3-dimethylmalonohydrazide] | < 5.90 | –
4 | CN(NC(=O)CC(=O)NN(C)C(=[Se])c1ccccc1)C(=[Se])c1ccccc1 [Compound 1, N′1,N′3-dimethyl-N′1,N′3-di(phenylcarbonoselenoyl)malonohydrazide] | 7.15 | –
5 | CN(NC(=O)CC(=O)NN(C)C(=S)c1ccccc1)C(=S)c1ccccc1 [Compound A, reference compound] | – | Hsp70 induction in linear manner with concentration
6 | CNN=C(C(=O)NN(C)C(=[Se])c1ccccc1)C(=O)NN(C)C(=[Se])c1ccccc1 [Compound 13, N′1,N′3-dimethyl-2-(2-methylhydrazono)-N′1,N′3-di(phenylcarbonoselenoyl)malonohydrazide] | < 5.90 | –
7 | CN(NC(=O)CS(=O)(=O)NN(C)C(=[Se])c1ccccc1)C(=[Se])c1ccccc1 [Compound 14, N′-methyl-2-(2-methyl-2-(phenylcarbonoselenoyl)hydrazinyl)-2-oxo-N′-(phenylcarbonoselenoyl)ethanesulfonohydrazide] | < 5.90 | –
